Test results: patent US20030190650A1 (priority 2000, published 2003)

System: primary human neutrophils
Experiment: Gliotoxin block of GM-CSF inhibition of neutrophil apoptosis (MTT)
Format: cell-based
Conditions: 0.1 μg/ml with 5 U/ml GM-CSF
Experimental: Primary human neutrophils are isolated and purified from peripheral blood of normal healthy individuals. Neutrophils are resuspended in serum containing culture medium containing 5 U/ml of GM-CSF at a concentration of 2×10^6/ml. […] After the indicated time, 10 μl of MTT (5 mg/ml) are added to the cultures and incubated for a further 4 h at 37° C. before solubilisation of the purple coloured formazan with acidic isopropanol. Optical densities are read at 570 nm using a plate reader.

## CS[C@]1(CO)C(=O)N2[C@H]3C(=CC=C[C@@H]3O)C[C@@]2(SC)C(=O)N1C [methylgliotoxin, bis-Dethio-bis (Methylthio) Gliotoxin]
  effect on GM-CSF inhibition of neutrophil apoptosis: blocking effect is not seen
